Measurements published in ChEMBL document CHEMBL4406833 (Eur J Med Chem, 2019).
≈ marks a conversion by molar mass, not a printed value.

Columns and labels:
[1] = target: Indoleamine 2,3-dioxygenase 1 (Homo sapiens, UniProt P14902); experiment: Inhibition of IDO1 in human HeLa cells using L-tryptophan as substrate incubated for 48 hrs; type: cell-based
[2] = tested on: Lewis lung carcinoma cell line; experiment: Antimetastatic activity against LLC cells allografted in C57BL6 mouse assessed as number of metastatic nodules in lung at 60 mg/kg, ig after 30 days by H and E staining based analysis; type: functional
[3] = target: Tryptophan 2,3-dioxygenase (Homo sapiens, UniProt P48775); experiment: Inhibition of N-terminal His-tagged human TDO expressed in Escherichia coli expression system
Tryptophan 2,3-dioxygenase, sequence (P48775 whole entry): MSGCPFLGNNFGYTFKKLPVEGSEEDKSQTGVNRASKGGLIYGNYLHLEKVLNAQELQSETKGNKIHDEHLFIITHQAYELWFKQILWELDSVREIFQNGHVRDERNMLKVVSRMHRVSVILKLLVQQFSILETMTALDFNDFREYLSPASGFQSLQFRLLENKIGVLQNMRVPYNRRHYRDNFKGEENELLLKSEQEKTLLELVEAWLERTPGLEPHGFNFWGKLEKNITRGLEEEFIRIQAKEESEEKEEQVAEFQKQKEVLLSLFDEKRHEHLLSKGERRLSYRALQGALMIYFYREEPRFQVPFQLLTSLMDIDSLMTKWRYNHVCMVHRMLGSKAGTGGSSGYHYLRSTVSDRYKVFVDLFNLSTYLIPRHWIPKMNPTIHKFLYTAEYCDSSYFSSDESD

[4] = tested on: Lewis lung carcinoma cell line; experiment: Antimetastatic activity against LLC cells allografted in C57BL6 mouse assessed as inhibition of metastatic nodules in lung at 60 mg/kg, ig after 30 days by H and E staining based analysis relative to control; type: functional; conditions: po, 720 h
[5] = target: T1, Indoleamine 2,3-dioxygenase 2 (Homo sapiens, UniProt Q6ZQW0); experiment: Inhibition of N-terminal His-tagged human IDO2 expressed in Escherichia coli expression system
T1 sequence (Q6ZQW0 whole entry): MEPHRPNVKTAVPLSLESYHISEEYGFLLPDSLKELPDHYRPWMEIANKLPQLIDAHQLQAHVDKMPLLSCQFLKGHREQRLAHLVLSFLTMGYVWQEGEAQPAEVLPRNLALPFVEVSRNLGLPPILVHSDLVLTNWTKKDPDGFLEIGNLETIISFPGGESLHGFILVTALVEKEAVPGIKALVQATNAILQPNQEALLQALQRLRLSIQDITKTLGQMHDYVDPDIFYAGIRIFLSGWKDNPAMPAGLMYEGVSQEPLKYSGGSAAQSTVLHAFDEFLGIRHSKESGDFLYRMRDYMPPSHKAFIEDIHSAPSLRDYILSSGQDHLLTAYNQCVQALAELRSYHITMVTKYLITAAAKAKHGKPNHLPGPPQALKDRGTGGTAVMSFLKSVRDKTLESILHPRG

[6] = Aqueous solubility of compound at 1 mg after 30 hrs by HPLC analysis; type: physicochemical
[7] = Apparent permeability across apical to basolateral side in human Caco2 cells upto 90 mins by LC-MS/MS analysis; type: ADME, cell-based; conditions: Caco-2
[8] = Toxicity in C57BL6 mouse allografted with Lewis cells assessed as increase in body weight at 60 mg/kg, ig measured every 3 days for 30 days; type: organism-based; conditions: in vivo, po, 720 h

Indoleamine 2,3-dioxygenase 1, sequence (P14902 whole entry): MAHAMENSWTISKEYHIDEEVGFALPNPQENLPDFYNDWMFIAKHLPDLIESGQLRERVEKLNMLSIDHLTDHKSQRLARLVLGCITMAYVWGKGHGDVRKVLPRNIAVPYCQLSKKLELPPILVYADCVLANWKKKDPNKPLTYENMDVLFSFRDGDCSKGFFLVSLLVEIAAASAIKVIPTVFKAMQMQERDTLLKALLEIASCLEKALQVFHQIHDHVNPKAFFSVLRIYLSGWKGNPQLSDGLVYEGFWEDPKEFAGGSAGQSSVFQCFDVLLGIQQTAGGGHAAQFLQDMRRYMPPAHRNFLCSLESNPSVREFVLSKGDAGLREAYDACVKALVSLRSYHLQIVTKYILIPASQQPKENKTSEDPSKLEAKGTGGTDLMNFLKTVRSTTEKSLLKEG

In the case of `CCOP(=O)(Cc1cccc2ccccc12)NCCNc1nonc1/C(=N/O)Nc1ccc(F)c(Br)c1` (stereo not given), the IC50 [1] is reported as 126 nM.

For `CCOP(=O)(NCCNc1nonc1/C(=N/O)Nc1ccc(F)c(Br)c1)c1ccccc1` (stereo not given), the IC50 [1] was 132 nM.

`CCOP(=O)(Cc1ccccc1)NCCNc1nonc1/C(=N/O)Nc1ccc(F)c(Br)c1` (stereo not given) showed an IC50 [1] of 119 nM.

For `NS(=O)(=O)NCCNc1nonc1C(=NO)Nc1ccc(F)c(Br)c1` [EPACADOSTAT], the Activity [2] was 21, the IC50 [3] was > 10000 nM and the inhibition in vivo at 60 mg/kg [4] was 77%. The IC50 [5] was 710 nM, the solubility at 30 h [6] was 130 µg/mL (≈ 297 µM) and the Papp A→B at 1.5 h [7] was 3.1 ×10⁻⁶ cm/s. For the same compound, the Activity [8] was “Toxic”.
